From patent publication US12570642B2, “GLP-IR modulating compounds” (Gilead Sciences, Inc., priority 2021, dated 2026)

Target: GLP-1R (Homo sapiens, UniProt P43220)
Assay: GLP-1R Activation - cAMP Assay
Type: cell-based
Conditions: cAMP increase in CHO cells stably expressing GLP-1R; each compound run on one of the two cAMP assays (Assay 1 or Assay 2, not specified)
Method in brief: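 CHO cells stably expressing GLP-1R, plated at 1,000 cells/well overnight, then equilibrated 1 h in HBSS with 20 mM Hepes and 0.1% BSA. Agonist added as 10-point dose response for 30 min at 37 °C. cAMP measured by HTRF (Cisbio Gs Dynamic kit); EC50 from sigmoidal fit.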

Sequence of GLP-1R (P43220 24-463): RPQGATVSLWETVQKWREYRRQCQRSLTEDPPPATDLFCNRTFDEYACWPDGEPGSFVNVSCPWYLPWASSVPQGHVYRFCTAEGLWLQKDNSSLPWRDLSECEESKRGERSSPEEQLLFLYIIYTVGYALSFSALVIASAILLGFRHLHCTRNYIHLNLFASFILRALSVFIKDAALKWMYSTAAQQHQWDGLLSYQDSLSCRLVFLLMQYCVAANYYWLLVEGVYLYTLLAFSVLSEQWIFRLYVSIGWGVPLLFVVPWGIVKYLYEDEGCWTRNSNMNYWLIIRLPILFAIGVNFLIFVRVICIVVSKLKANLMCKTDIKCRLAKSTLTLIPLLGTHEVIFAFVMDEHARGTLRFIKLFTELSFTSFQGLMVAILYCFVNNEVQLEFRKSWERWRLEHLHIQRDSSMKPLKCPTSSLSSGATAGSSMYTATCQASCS

Structure (SMILES)	EC50 [pM]
CC1(C)COCC1n1c(Cc2cc(F)c(-c3cccc(OCc4ccc(C#N)cc4F)n3)cc2F)nc2c(Br)cc(C(=O)O)cc21 (centres unmarked) [Example 13, 4-bromo-2-(4-(6-((4-cyano-2-fluorobenzyl)oxy)pyridin-2-yl)-2,5-difluorobenzyl)-1-(4,4-dimethyltetrahydrofuran-3-yl)-1H-benzo[d]imidazole-6-carboxylic Acid]	190
COCCn1cc(-c2ccc(COc3cccc(-c4cc(F)c(Cc5nc6ccc(C(=O)O)cc6n5CCOC)cc4F)n3)c(F)c2)cn1 [Example 106, 2-(2,5-difluoro-4-(6-((2-fluoro-4-(1-(2-methoxyethyl)-1H-pyrazol-4-yl)benzyl)oxy)pyridin-2-yl)benzyl)-1-(2-methoxyethyl)-1H-benzo[d]imidazole-6-carboxylic Acid]	2220
COCCn1c(Cc2c(F)cc(-c3cccc(OCc4ccc(C#N)cc4F)n3)c(F)c2F)nc2c(F)cc(C(=O)O)cc21 [Example 292, 2-(4-(6-((4-cyano-2-fluorobenzyl)oxy)pyridin-2-yl)-2,3,6-trifluorobenzyl)-4-fluoro-1-(2-methoxyethyl)-1H-benzo[d]imidazole-6-carboxylic acid]	133
N#Cc1ccc(COc2cccc(-c3cc(F)c(Cc4nc5ccc(C(=O)O)cc5n4[C@@H]4COC[C@@H]4COC(F)F)cc3F)n2)c(F)c1 [Example 185, 2-(4-(6-((4-cyano-2-fluorobenzyl)oxy)pyridin-2-yl)-2,5-difluorobenzyl)-1-((3S,4R)-4-((difluoromethoxy)methyl)tetrahydrofuran-3-yl)-1H-benzo[d]imidazole-6-carboxylic Acid]	594
N#Cc1ccc(COc2cccc(-c3cc(F)c(Cc4nc5ccc(C(=O)O)cc5n4C4CCCC4)cc3F)n2)c(F)c1 [Example 6, 2-(4-(6-((4-cyano-2-fluorobenzyl)oxy)pyridin-2-yl)-2,5-difluorobenzyl)-1-cyclopentyl-1H-benzo[d]imidazole-6-carboxylic acid]	8490
COCCn1c(Cc2c(F)cc(-c3cccc(OCc4ccc(C#N)cc4F)n3)c3nccn23)nc2ccc(C(=O)O)cc21 [Example 50]	5240
COCCn1c(Cc2cc(F)c(-c3cccc(OCc4ncc(Br)cc4F)n3)cc2F)nc2ccc(C(=O)O)cc21 [Example 23]	4570
Cc1cc(Cc2nc3c(F)cc(C(=O)O)cc3n2C[C@@H]2CCO2)c(Cl)cc1-c1cccc(OCc2ccc(C#N)cc2F)n1 [Example 143, (S)-2-(2-chloro-4-(6-((4-cyano-2-fluorobenzyl)oxy)pyridin-2-yl)-5-methylbenzyl)-4-fluoro-1-(oxetan-2-ylmethyl)-1H-benzo[d]imidazole-6-carboxylic Acid]	614
N#Cc1ccc(COc2cccc(-c3cc(F)c(Cc4nc5ccc(C(=O)O)cc5n4C4CCCC45CC5)cc3F)n2)c(F)c1 (centres unmarked) [Example 63, 2-(4-(6-((4-cyano-2-fluorobenzyl)oxy)pyridin-2-yl)-2,5-difluorobenzyl)-1-(spiro[2.4]heptan-4-yl)-1H-benzo[d]imidazole-6-carboxylic Acid]	2550

Results, then the compound that gave them:

EC50 [pM]	Structure (SMILES)
337	CC1(C)COC[C@H]1n1c(Cc2cc(F)c(-c3nccc(OCc4ccc(Cl)cc4F)n3)cc2F)nc2ccc(C(=O)O)cc21 [Example 405, (S)-2-(4-(4-((4-chloro-2-fluorobenzyl)oxy)pyrimidin-2-yl)-2,5-difluorobenzyl)-1-(4,4-dimethyltetrahydrofuran-3-yl)-1H-benzo[d]imidazole-6-carboxylic acid]
188	O=C(O)c1ccc2nc(Cc3cc(F)c(-c4cccc(OCc5ccc(Cl)cc5F)n4)cc3F)n(C3COC4CC3C4)c2c1 (stereo in doubt) [Example 573, (S)-1-(2-oxabicyclo[3.1.1]heptan-4-yl)-2-(4-(6-((4-chloro-2-fluorobenzyl)oxy)pyridin-2-yl)-2,5-difluorobenzyl)-1H-benzo[d]imidazole-6-carboxylic acid]
1390	CC1(C)COC[C@H]1n1c(Cc2cc(F)c(-c3cc(C(F)F)cc(OCc4ccc(Cl)cc4F)n3)cc2F)nc2ccc(C(=O)O)cc21 [Example 447, (S)-2-(4-(6-((4-chloro-2-fluorobenzyl)oxy)-4-(difluoromethyl)pyridin-2-yl)-2,5-difluorobenzyl)-1-(4,4-dimethyltetrahydrofuran-3-yl)-1H-benzo[d]imidazole-6-carboxylic acid]
722	CC1(C)COC[C@H]1n1c(Cc2cc(F)c(-c3ccc(F)c(OCc4ccc(Cl)cc4)n3)cc2F)nc2c(Cl)cc(C(=O)O)cc21 [Example 441, (S)-4-chloro-2-(4-(6-((4-chlorobenzyl)oxy)-5-fluoropyridin-2-yl)-2,5-difluorobenzyl)-1-(4,4-dimethyltetrahydrofuran-3-yl)-1H-benzo[d]imidazole-6-carboxylic acid]
250	CC1(C)COC[C@H]1n1c(Cc2cc(F)c(-c3cccc(OCc4ccccc4F)n3)cc2F)nc2ccc(C(=O)O)cc21 [Example 478, (S)-2-(2,5-difluoro-4-(6-((2-fluorobenzyl)oxy)pyridin-2-yl)benzyl)-1-(4,4-dimethyltetrahydrofuran-3-yl)-1H-benzo[d]imidazole-6-carboxylic acid]
508	CC1(C)COC[C@H]1n1c(Cc2c(F)cc(-c3ccc(F)c(OCc4ccc(C#N)cc4F)n3)cc2F)nc2c(F)cc(C(=O)O)cc21 [Example 307, (S)-2-(4-(6-((4-cyano-2-fluorobenzyl)oxy)-5-fluoropyridin-2-yl)-2,6-difluorobenzyl)-1-(4,4-dimethyltetrahydrofuran-3-yl)-4-fluoro-1H-benzo[d]imidazole-6-carboxylic acid]
477	CC1(C)COC[C@H]1n1c(Cc2cc(F)c(-c3cccc(OCc4cc(F)c(F)cc4Cl)n3)cc2F)nc2ccc(C(=O)O)cc21 [Example 454, (S)-2-(4-(6-((2-chloro-4,5-difluorobenzyl)oxy)pyridin-2-yl)-2,5-difluorobenzyl)-1-(4,4-dimethyltetrahydrofuran-3-yl)-1H-benzo[d]imidazole-6-carboxylic acid]
194	CO[C@H](C)[C@@H](C)n1c(Cc2cc(F)c(-c3cccc(OCc4ccc(Cl)cc4F)n3)cc2F)nc2ccc(C(=O)O)cc21 [Example 565, 2-(4-(6-((4-chloro-2-fluorobenzyl)oxy)pyridin-2-yl)-2,5-difluorobenzyl)-1-((2R,3R)-3-methoxybutan-2-yl)-1H-benzo[d]imidazole-6-carboxylic acid]
64	CO[C@@]1(C)COC[C@H]1n1c(Cc2cc(F)c(-c3cccc(OCc4ccc(C#N)cc4F)n3)cc2F)nc2ccc(C(=O)O)cc21 (single isomer, unassigned) [Example 311A]
66	CC1(C)COCC1n1c(Cc2cc(F)c(-c3cccc(OCc4ncc(Cl)cc4F)n3)cc2F)nc2ccc(C(=O)O)cc21 (centres unmarked) [Example 296, 2-(4-(6-((5-chloro-3-fluoropyridin-2-yl)methoxy)pyridin-2-yl)-2,5-difluorobenzyl)-1-(4,4-dimethyltetrahydrofuran-3-yl)-1H-benzo[d]imidazole-6-carboxylic acid]
181	CC1(C)COC[C@H]1n1c(Cc2c(F)cc(-c3cccc(OCc4ccc(Cl)cc4F)n3)cc2F)nc2ccc(C(=O)O)cc21 [Example 302, (S)-2-(4-(6-((4-chloro-2-fluorobenzyl)oxy)pyridin-2-yl)-2,6-difluorobenzyl)-1-(4,4-dimethyltetrahydrofuran-3-yl)-1H-benzo[d]imidazole-6-carboxylic acid]
